Reference: patent US10035790B2, “RORγ modulators” (BRISTOL-MYERS SQUIBB COMPANY, priority 2012, dated 2018)

Target: T1, ligand binding domain of human RORγ (A262-S507) (Homo sapiens, UniProt P51449)
T1 construct: made in house; host or cells: E. coli
T1 sequence (P51449 262-507): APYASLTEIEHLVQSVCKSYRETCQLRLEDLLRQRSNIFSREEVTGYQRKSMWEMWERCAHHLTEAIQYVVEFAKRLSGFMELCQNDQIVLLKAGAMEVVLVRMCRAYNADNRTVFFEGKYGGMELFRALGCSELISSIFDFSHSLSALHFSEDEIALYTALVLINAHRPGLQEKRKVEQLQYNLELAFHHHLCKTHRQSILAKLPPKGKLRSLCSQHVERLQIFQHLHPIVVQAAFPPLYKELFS
Assay: General RORγ SPA binding assay (competition with [3H]25-hydroxycholesterol)
Conditions: RORγ SPA binding assay, inhibition of [3H]25-hydroxycholesterol binding; read-out: IC50
Method in brief: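 Step one: compound meets 50 nM nickel-purified, His-tagged protein from E. coli for 15 min at room temperature (PBS, 0.5% fatty acid free BSA). Step two: radioligand is added for another 15 min. Step three: SPA beads are added for 30 min before scintillation reading and IC50 fitting.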

Row | SMILES | IC50 [nM]
1 | CC(C)Oc1ncc(C(=O)NCc2cccc(Cl)c2)c(C2CCN(C(=O)Cc3c(F)cccc3F)CC2)n1 [Compound A95, N-(3-chlorobenzyl)-4-(1-(2-(2,6-difluorophenyl)acetyl)piperidin-4-yl)-2-isopropoxypyrimidine-5-carboxamide] | 175
2 | NCCNc1ncc(C(=O)NCc2cccc(Cl)c2)c(C2CCN(C(=O)Cc3c(F)cccc3F)CC2)n1 [Compound A96, 2-((2-aminoethyl)amino)-N-(3-chlorobenzyl)-4-(1-(2-(2,6-difluorophenyl)acetyl)piperidin-4-yl)pyrimidine-5-carboxamide] | 202
3 | CN(C)CCNc1ncc(C(=O)NCc2cccc(Cl)c2)c(C2CCN(C(=O)Cc3c(F)cccc3F)CC2)n1 [Compound A97, N-(3-chlorobenzyl)-4-(1-(2-(2,6-difluorophenyl)acetyl)piperidin-4-yl)-2-((2-(dimethylamino)ethyl)amino) pyrimidine-5-carboxamide] | 290
4 | O=C(NCc1cccc(Cl)c1)c1cnc(O)nc1C1CCN(C(=O)Cc2c(F)cccc2F)CC1 [Compound A98, N-(3-chlorobenzyl)-4-(1-(2-(2,6-difluorophenyl)acetyl)piperidin-4-yl)-2-hydroxypyrimidine-5-carboxamide] | 398
5 | Cc1cc(C)cc(CNC(=O)c2cnc(C)nc2C2CCN(CCc3c(F)cccc3F)CC2)c1 [Compound A99, 4-(1-(2,6-difluorophenethyl)piperidin-4-yl)-N-(3,5-dimethylbenzyl)-2-methylpyrimidine-5-carboxamide] | 58
6 | Cc1cc(C)cc(CNC(=O)c2cnc(C)nc2C2CCN(CCc3ccccc3Cl)CC2)c1 [Compound A100, 4-(1-(2-chlorophenethyl)piperidin-4-yl)-N-(3,5-dimethylbenzyl)-2-methylpyrimidine-5-carboxamide] | 433
7 | Cc1cc(C)cc(CNC(=O)c2cnc(C)nc2C2CCN(CCc3ccccc3)CC2)c1 [Compound A101, N-(3,5-dimethylbenzyl)-2-methyl-4-(1-phenethylpiperidin-4-yl)pyrimidine-5-carboxamide] | 634
8 | Cc1ncc(C(=O)NCc2cccc(Cl)c2)c(C2(C)CCN(C(=O)Cc3c(F)cccc3F)CC2)n1 [Compound A102, N-(3-Chlorobenzyl)-4-(1-(2-(2,6-difluorophenyl)acetyl)-4-methylpiperidin-4-yl)-2-methylpyrimidine-5-carb oxamide] | 1730
9 | Cc1ncc(C(=O)NCc2cccc(C(F)(F)F)n2)c(C2(F)CCN(C(=O)Cc3c(F)cccc3F)CC2)n1 [Compound A104, 4-(1-(2-(2,6-difluorophenyl)acetyl)-4-fluoropiperidin-4-yl)-2-methyl-N-((6-(trifluoromethyl)pyridin-2-yl)methyl)pyrimidine-5-carboxamide] | 231
10 | Cc1cc(C)cc(CNC(=O)c2cnc(C)nc2C2(F)CCN(C(=O)Cc3c(F)cccc3F)CC2)c1 [Compound A105, 4-(1-(2-(2,6-difluorophenyl)acetyl)-4-fluoropiperidin-4-yl)-N-(3,5-dimethylbenzyl)-2-methylpyrimidine-5-carboxamide] | 551
11 | Cc1cc(C)cc(CNC(=O)c2cnc(C)nc2C2CCN(C(=O)Nc3ccccc3F)CC2)c1 [Compound A106, N-(3,5-Dimethylbenzyl)-4-(1-((2-fluorophenyl)carbamoyl)piperidin-4-yl)-2-methylpyrimidine-5-carboxamide] | 270
12 | Cc1ncc(C(=O)NC(CO)c2cccc(Cl)c2)c(C2CCN(C(=O)Cc3c(F)cccc3F)CC2)n1 (stereo not drawn) [Compound A110, N-(1-(3-Chlorophenyl)-2-hydroxyethyl)-4-(1-(2-(2,6-difluorophenyl)acetyl)piperidin-4-yl)-2-methylpyrimidine-5-carboxamide] | 1440
13 | Cc1cc(C)cc(CNC(=O)c2c(C3CCN(C(=O)Cc4c(F)cccc4F)CC3)nc(C)nc2C(F)(F)F)c1 [Compound A112, 4-(1-(2-(2,6-Difluorophenyl)acetyl)piperidin-4-yl)-N-(3,5-dimethylbenzyl)-2-methyl-6-(trifluoromethyl)pyrimidine-5-carboxamide] | 33.6

Now those with a lower IC50, led by results:

Row | IC50 [nM] | SMILES
14 | 25.4 | CC(C)Nc1ncc(C(=O)NCc2cccc(Cl)c2)c(C2CCN(C(=O)Cc3c(F)cccc3F)CC2)n1 [Compound A94, N-(3-chlorobenzyl)-4-(1-(2-(2,6-difluorophenyl)acetyl)piperidin-4-yl)-2-(isopropylamino)pyrimidine-5-carboxamide]
15 | 21.7 | CNc1nc(C)nc(C2CCN(C(=O)Cc3c(F)cccc3F)CC2)c1C(=O)NCc1cc(C)cc(C)c1 [Compound A108, 4-(1-(2-(2,6-Difluorophenyl)acetyl)piperidin-4-yl)-N-(3,5-dimethylbenzyl)-2-methyl-6-(methylamino)pyrimidine-5-carboxamide]
16 | 16 | CCOc1ncc(C(=O)NCc2cccc(Cl)c2)c(C2CCN(C(=O)Cc3c(F)cccc3F)CC2)n1 [Compound A93, N-(3-chlorobenzyl)-4-(1-(2-(2,6-difluorophenyl)acetyl)piperidin-4-yl)-2-ethoxypyrimidine-5-carboxamide]
17 | 12.1 | Cc1cc(C)cc(CNC(=O)c2cnc(C)nc2C2CCN(C(=O)Nc3c(F)cccc3F)CC2)c1 [Compound A107, 4-(1-((2,6-Difluorophenyl)carbamoyl)piperidin-4-yl)-N-(3,5-dimethylbenzyl)-2-methylpyrimidine-5-carboxamide]
18 | 10 | COc1ncc(C(=O)NCc2cccc(Cl)c2)c(C2CCN(C(=O)Cc3c(F)cccc3F)CC2)n1 [Compound A92, N-(3-chlorobenzyl)-4-(1-(2-(2,6-difluorophenyl)acetyl)piperidin-4-yl)-2-methoxypyrimidine-5-carboxamide]
19 | 9.8 | COc1nc(C)nc(C2CCN(C(=O)Cc3c(F)cccc3F)CC2)c1C(=O)NCc1cccc(Cl)c1 [Compound A111, N-(3-Chlorobenzyl)-4-(1-(2-(2,6-difluorophenyl)acetyl)piperidin-4-yl)-6-methoxy-2-methylpyrimidine-5-carboxamide]
20 | 7.3 | CNc1nc(C)nc(C2CCN(C(=O)Cc3c(F)cccc3F)CC2)c1C(=O)NCc1cccc(Cl)c1 [Compound A109]
21 | 6.7 | CCNc1ncc(C(=O)NCc2cccc(Cl)c2)c(C2CCN(C(=O)Cc3c(F)cccc3F)CC2)n1 [Compound A91, N-(3-chlorobenzyl)-4-(1-(2-(2,6-difluorophenyl)acetyl)piperidin-4-yl)-2-(ethylamino)pyrimidine-5-carboxamide]
22 | 6.3 | CNc1ncc(C(=O)NCc2cccc(Cl)c2)c(C2CCN(C(=O)Cc3c(F)cccc3F)CC2)n1 [Compound A90, N-(3-chlorobenzyl)-4-(1-(2-(2,6-difluorophenyl)acetyl)piperidin-4-yl)-2-(methylamino)pyrimidine-5-carboxamide]
23 | 5.8 | Nc1ncc(C(=O)NCc2cccc(Cl)c2)c(C2CCN(C(=O)Cc3c(F)cccc3F)CC2)n1 [Compound A89, 2-amino-N-(3-chlorobenzyl)-4-(1-(2-(2,6-difluorophenyl)acetyl)piperidin-4-yl)pyrimidine-5-carboxamide]
24 | 3.4 | Cc1ncc(C(=O)NCc2cccc(Cl)c2)c(C2(F)CCN(C(=O)Cc3c(F)cccc3F)CC2)n1 [Compound A103, N-(3-Chlorobenzyl)-4-(1-(2-(2,6-difluorophenyl)acetyl)-4-fluoropiperidin-4-yl)-2-methylpyrimidine-5-carboxamide]
